# Where two headings read alike, the source gives them in different places.
# Test: Tissue bio-distribution and tissue pharmacokinetics of DMA
# Format: in vivo, mouse
# Method: Tissue samples were collected from the same mice from which blood samples were collected in both doses of DMA. Lung, liver, kidney, intestine, heart, spleen, brain were dissected and rinsed with phosphate buffer saline (PBS) and dried on blotting paper. 100 mg of tissue sample was homogenized for 20 s in chilled acetronitrile and water and further 700 μl chilled acetronitrile was added. The sample was centrifuged at 14000 rpm for 10 min and clear supernatant was collected for analysis on HPLC-MS/MS system.
# A standard DMA calibration from 1-1000 ng/ml with internal standard (20 ng/ml) was quantified. Sample analysis was performed on positive ionization mode LC-MS/MS with multiple reactions monitoring (MRM, m/z Q1/Q3) of DMA (m/z 235.1/412.0, retention time (RT) 5.3 min) and internal standard (m/z 227.1/396.0, RT 6.5 min) (Agilent 6410 series). A gradient method was employed to analyze the plasma samples using mobile phase A (0.1% formic acid in water) and mobile phase B (methanol). The B % was set as 30 (0 min), 90 (10-14 min), 30 (14-24 min) with flow rate of 0.3 ml/min. An injection volume of 10 μl was used for analysis.
# Peak tissue concentration (Cmax) of DMA and time to reach the Cmax (tmax) were read directly from the raw data by visual examination of mean tissue concentration-time profile. The tissue concentration-time data following oral dose were subjected to one-, two- and three-compartmental models using WinNonlin program (version 6.3; Certara Inc, Missouri, USA) to calculate the pharmacokinetic parameters. The pharmacokinetic models were compared according to maximal correlation between observed and predicted concentration, minimal sum of squared residuals, Akaike Information Criterion (AIC) and Schwarz Bayesian Criterion (SBC). However, the tissue concentration-time data following intravenous administration were subjected to non-compartmental approach.
# [1] = Balb/c, mouse, intestine, iv, i.v. 50 mg/kg, read-out: Tissue DMA concentration, Intestine
# [2] = Balb/c, mouse, intestine, Oral 100 mg/kg, read-out: Tissue DMA concentration, Intestine
# [3] = Balb/c, mouse, kidney, iv, i.v. 50 mg/kg, read-out: Tissue DMA concentration, Kidney
smiles,measurement,setting,value
"COc1ccc(-c2nc3cc(-c4nc5cc(N6CCN(C)CC6)ccc5[nH]4)ccc3[nH]2)cc1OC [DMA, 5-(4-methylpiperazin-1-yl)-2-[2′-(3,4-dimethoxyphenyl)-5′-benzimidazolyl]benzimidazole]",Concentration achieved in intestine,50 mg/kg i.v.,1260 µg/g
same,"Small intestine concentration, i.v. as compared to oral route",50 mg/kg i.v. vs 100 mg/kg oral,11.88 fold
same,"AUC, Kidney",50 mg/kg intravenous,945577.2 ng·h/g
same,"AUC, Liver",50 mg/kg intravenous,889040 ng·h/g
same,"AUC, Lung",50 mg/kg intravenous,2674622.2 ng·h/g
same,"AUC, Small Intestine",50 mg/kg intravenous,220072.6 ng·h/g
same,"AUC, Spleen",50 mg/kg intravenous,145191 ng·h/g
same,"C1 hr, Kidney",50 mg/kg intravenous,14900 ng/g
same,"C1 hr, Liver",50 mg/kg intravenous,41600 ng/g
same,"C1 hr, Lung",50 mg/kg intravenous,109000 ng/g
same,"C1 hr, Small Intestine",50 mg/kg intravenous,1260000 ng/g
same,"Clearance, Kidney",50 mg/kg intravenous,17.9 g/h/kg
same,"Clearance, Liver",50 mg/kg intravenous,39.5 g/h/kg
same,"Clearance, Small Intestine",50 mg/kg intravenous,15.0 g/h/kg
same,"Clearance, Spleen",50 mg/kg intravenous,89.3 g/h/kg
same,"Vd, Kidney",50 mg/kg intravenous,1944.8 g/kg
same,"Vd, Liver",50 mg/kg intravenous,668.7 g/kg
same,"Vd, Lung",50 mg/kg intravenous,552.1 g/kg
same,"Vd, Small Intestine",50 mg/kg intravenous,40360.3 g/kg
same,"Vd, Spleen",50 mg/kg intravenous,3857.9 g/kg
same,"Vss, Kidney",50 mg/kg intravenous,1623.5 g/kg
same,"Vss, Liver",50 mg/kg intravenous,496.11 g/kg
same,"Vss, Lung",50 mg/kg intravenous,10.72 g/kg
same,"Vss, Small Intestine",50 mg/kg intravenous,4.9 g/kg
same,"Vss, Spleen",50 mg/kg intravenous,4114.6 g/kg
same,"AUC, Kidney",100 mg/kg oral dose,10874.29 ng·h/g
same,"AUC, Liver",100 mg/kg oral dose,20717.3 ng·h/g
same,"AUC, Small Intestine",100 mg/kg oral dose,361353.4 ng·h/g
same,"AUC, Spleen",100 mg/kg oral dose,8353.819 ng·h/g
same,"Cl/F, Kidney",100 mg/kg oral dose,9190 g/h/kg
same,"Cl/F, Liver",100 mg/kg oral dose,4000 g/h/kg
same,"Cl/F, Small Intestine",100 mg/kg oral dose,277 g/h/kg
same,"Cl/F, Spleen",100 mg/kg oral dose,11000 g/h/kg
same,"Cmax, Kidney",100 mg/kg oral dose,1530 ng/g
same,"Cmax, Liver",100 mg/kg oral dose,2230 ng/g
same,Maximum concentration in small intestine,"100 mg/kg oral, at 2 h",106 µg/g
same,Maximum concentration in spleen,"100 mg/kg oral, at 2 h",1.31 µg/g
same,Maximum concentration in kidney,"100 mg/kg oral, at 4 h",1.53 µg/g
same,Maximum concentration in liver,"100 mg/kg oral, at 4 h",2.23 µg/g
same,concentration at 2 h,[1],70400 ng/g
same,concentration at 4 h,[1],59200 ng/g
same,concentration at 6 h,[1],29700 ng/g
same,concentration at 16 h,[1],2530 ng/g
same,concentration at 24 h,[1],1710 ng/g
same,concentration at 1 h,"Balb/c, mouse, intestine, Oral 100 mg/kg, 1 h, read-out: Tissue DMA concentration, Intestine",675 ng/g
same,concentration at 2 h,[2],106000 ng/g
same,concentration at 4 h,[2],30200 ng/g
same,concentration at 6 h,[2],28700 ng/g
same,concentration at 16 h,[2],612 ng/g
same,concentration at 24 h,[2],410 ng/g
same,concentration at 1 h,"Balb/c, mouse, kidney, intravenous, 50 mg/kg i.v., read-out: Concentration achieved in kidney",14900 ng/g
same,concentration at 1 h,"Balb/c, mouse, kidney, iv, i.v. 50 mg/kg, 1 h, read-out: Tissue DMA concentration, Kidney",14900 ng/g
same,concentration at 2 h,[3],8370 ng/g
same,concentration at 4 h,[3],9080 ng/g
same,concentration at 6 h,[3],707 ng/g
same,concentration at 16 h,[3],263 ng/g
same,half-life,"Balb/c, mouse, kidney, 100 mg/kg oral dose, read-out: Half life, Kidney (converted)",2.5 h
same,Tmax,"Balb/c, mouse, kidney, 100 mg/kg oral dose, read-out: Tmax, Kidney",4 h
